{"source": "patent US20250268938A1", "about": "“SMALL MOLECULE-REGULATED CELL SIGNALING EXPRESSION SYSTEM” (Outpace Bio, Inc., priority 2021, published 2025)", "molecules": {"B1": {"name": "Conventional CAR: conventional, single-chain ROR1-CAR (protein)", "chain": "CPPCPMFWVLVVVGGVLACYSLLVTVAFIIFWVKRGRKKLLYIFKQPFMRPVQTTQEEDGCSCRFPEEEEGGCELRVKFSRSADAPAYQQGQNQLYNELNLGRREEYDVLDKRRGRDPEMGGKPRRKNPQEGLYNELQKDKMAEAYSEIGMKGERRRGKGHDGLYQGLSTATKDTYDALHMQALPPR"}}, "key": {"Jurkat cells": {"system": "Jurkat cells", "assay": "Kill switch percent killing in Jurkat cells (flow cytometry)", "assay_type": "cell-based", "protocol": "Kill switch-positive cells (le5) were incubated for 24-48 hours with inducer drug before staining and analysis for death. Conditions were normalized to contain about 50% transduction positive (+) cells by adding untransduced Jurkat or primary T cells in order to get accurate statistics on death.\nFlow cytometry was performed on a Ze5 cytometer (Biorad). To determine expression of markers, between 1×10^5-2×10^5 total cells were transferred to a U-bottom 96 well culture dish (Corning). Cells were washed twice with Cell Staining Buffer (BioLegend), then stained with Zombie Violet (1:1000, BioLegend) and ROR1-FC for ROR1-specific CAR constructs (20 min at room temperature). Cells were washed twice in Cell Staining Buffer, then stained with Annexin V-PE (BD) in 1× Annexin V Binding Buffer (BD) for 15 min at room temperature. After staining, cells were washed once with Annexin V Binding Buffer, resuspended in AnneinV Binding Buffer and immediately analyzed.\n(§1) Flow cytometry data was analyzed using FlowJo 10 (Tree Star). Percent killing was calculated by gating on live cells, then calculating 100*((percent GFP positive DMSO condition)−(percent GFP positive drug condition))/(percent GFP positive DMSO condition).\nWe first tested for drug-induced death of Jurkat cells by fusing NS3a and DNCR2 separately to the catalytic domain of caspase-9 (NCDC). The small molecule inducible homodimer FKBP-F36V (iCasp9), which is dimerized by AP1903 (rimiducid) and the inducible heterodimer FKBP/rapamycin/FRB dimer (rapaCasp9) were used as controls. Briefly, Jurkat cells expressing NCDC, iCasp9, or rapaCasp9 were exposed to danoprevir, rimiducid or rapamycin, respectively, for 24 hours and analyzed by flow cytometry with gating set to measure killing in the top about 10% of cells expressing the highest amount of the GFP kill switch transduction marker.\nTo evaluate the kill switch designs of FIG. 8A, constructs were expressed in Jurkat cells, treated with 500 nM danoprevir (DNCR2-casp-9) or 500 nM grazoprevir (GNCR1-casp-9) and cell death measured by percent killing as described herein above.\nThe miniaturized versions of DNCR2, D1 and D9, were fused to caspase-9 and co-expressed in Jurkat cells with homo-oligomerized NS3a scaffolds. We also evaluated a CAR construct that included an additional copy of NS3a (CAR-2×NS3a). The original DNCR2-casp-9 was used as a control. Jurkat cells expressing different DNCR2 variants fused to caspase-9 along with CAR-NS3a, CAR-NS3a-NS3a, or dimer-NS3a were treated with 500 nM danoprevir and cell death was measured by percent killing as described herein above.\n(§2) We explored the ability of other human killing domains to induce cell death in Jurkat and primary human T cells. We fused FKBP-F36V to a panel of killing domains that included caspase-9 D330A, caspase-9, caspase-1, caspase-4, and the necroptosis-inducing protein RIPK3. Briefly, Jurkat and primary human CD4+/CD8+ T cells expressing FKBP(F36V)-fused killing domains were treated with 10 nM rimiducid and cell death was measured by percent killing as described herein above."}, "[1]": {"system": "primary human CD4+/CD8+ T cells", "assay": "Kill switch percent killing in primary human T cells", "assay_type": "cell-based", "conditions": "10 nM rimiducid, range of transduction levels", "protocol": "Pre-selected, cryopreserved primary human CD4 T cells from normal donors were obtained from Bloodworks (Seattle WA). Human T cells were cultured in OpTmizer medium (Thermo Fisher) supplemented with Immune Cell Serum Replacement (Thermo Fisher), 2 mM L-glutamine (Gibco), 2 mM Glutamax (Gibco), 200 IU/ml IL-2 (R&D systems), 120 IU/ml IL-7 (R&D systems), and 20 IU/ml IL-15 (R&D systems).\nFor lentiviral transduction, T cells were stimulated with a 1:100 dilution of T cell TransAct (Miltenyi) for 30 hours. Virus was then added to T cells for 18-24 hours. […]\nFlow cytometry was performed on a Ze5 cytometer (Biorad). […] After staining, cells were washed once with Annexin V Binding Buffer, resuspended in AnneinV Binding Buffer and immediately analyzed.\nas §1\nas §2, with “We fused FKBP-F36V to a panel of killing domains that included caspase-9 D330A, caspase-9, caspase-1, caspase-4, and the necroptosis-inducing protein RIPK3.” left out"}, "[2]": {"system": "Jurkat CD3ζ-signaling reporter line", "assay": "CAR signaling (tdTomato) in Jurkat CD3ζ-signaling reporter line", "assay_type": "cell-based", "conditions": "for CAR signaling, tdTomato intensity, drug switch: grazoprevir at time zero, washed and danoprevir at 48 hours, tracked additional 72 hours", "protocol": "(§3) For IncuCyte analysis of CD3ζ-signaling tdTomato reporter line with CARs and DNCR2-casp-9 kill switch (with EGFP transduction maker), 5e4 CAR+ cells were plated per well in poly-D-Lys coated plate in which 5e4 Jeko1 cells were previously seeded. Drug (e.g., grazoprevir, danoprevir) was added to given final concentration and cells were imaged for tdTomato and EGFP signal at 20×, 800 msec exposure, 4 images/well, every 3 hours. Cells were removed from the Incucyte plate to a v-bottom plate for 2 washes in PBS at 48 hours when the drug condition was changed.\n(§4) Coculture for flow analysis of the CAR/kill switch constructs was setup 24 hours before analysis. CAR-positive cells (le5 cells; part I and part II positive, i.e., ROR1+ and EGFRt+ (part II marker)) were mixed with le5 Jeko1 cells and drug. Cells were analyzed for ROR1, EGFRt ([…]), tdTomato, EGFP, and viability as described hereinbelow.\n(§5) To evaluate the use of two drug inputs to control two different signaling outputs, we used a Jurkat cell CD3ζ-signaling reporter line expressing the red fluorescent protein tdTomato to track CAR signaling, and the loss of the transduction marker (EGFP) of the DNCR2-caspase-9 construct to track Jurkat cell death.\n(§6) We tested the ability to switch between CAR signaling and induction of apoptosis over time in an IncuCyte assay. Briefly, the CD3ζ-signaling reporter line expressing the dual-function GNCR1-CAR/DNCR2-casp9 was mixed 1:1 with Jeko1 cells and treated with 500 nM grazoprevir or danoprevir, or DMSO. Over a period of 48 hours, CAR signaling was tracked by tdTomato intensity and drug-induced cell death (i.e., activation of the safety switch) was monitored by tracking the transduction marker EGFP intensity.\n(§7) We then tested the ability to switch from induction of CAR signaling with grazoprevir to induction of apoptosis with danoprevir. Briefly, CAR signaling was activated by grazoprevir treatment at time zero. After 48 hours, the cells were washed and treated with danoprevir. CAR signaling (tdTomato intensity) and cell viability (EGFP intensity) were tracked over an additional 72-hour period."}, "[3]": {"system": "Jurkat CD3ζ-signaling reporter line", "assay": "Drug-induced cell death (loss of EGFP transduction marker) in Jurkat CD3ζ-signaling reporter line", "assay_type": "cell-based", "protocol": "as §3, §4\nPercent killing was calculated by gating on live cells, then calculating 100*((percent GFP positive DMSO condition)−(percent GFP positive drug condition))/(percent GFP positive DMSO condition).\nas §5, §6, §7"}, "danoprevir/NS3a complex": {"system": "danoprevir/NS3a complex", "conditions": "cited from earlier work"}, "[4]": {"system": "CD69 expression in CAR expressing Jurkat cells", "assay": "Induction of CD69 expression in CAR expressing Jurkat cells co-cultured with Jeko1 cells (flow cytometry)", "assay_type": "cell-based", "conditions": "conventional single-chain ROR1-CAR Jurkat cells with Jeko1 cells; 500 nM danoprevir", "protocol": "NS3a-based regulated CARs were evaluated using lentiviral transduction of T cells and flow cytometry analysis. The CARs evaluated are specific for the ROR1 antigen expressed on the target cell line Jeko1. The Jurkat and Jeko1 cell lines were obtained from American Type Culture Collection (Manassas, VA) and maintained in RPMI 1640 media with Glutamax (Gibco) containing 10% fetal calf serum (Gibco). For lentiviral transduction, Jurkat cells were incubated with lentivirus in complete media plus LentiBOOST at the manufacturers recommended concentration (Sirion Biotech). Eighteen hours after transfection, lentivirus and LentiBOOST were diluted by addition of 1 volume fresh media.\nFor flow analysis of induction of CD69 expression, Jurkat cells were mixed 1:1 with Jeko1 cells or Jeko1-ROR1-KO cells. Drug was added to a final concentration of 500 nM. Cultures were incubated with drug for 24 hours before flow analysis for surface markers.\nFlow cytometry of CAR experiments was performed on a Ze5 cytometer (Biorad). […] Flow cytometry data was analyzed using FlowJo 10 (Tree Star).\nThe three NS3a-based regulated CARs described hereinabove with reference to FIG. 1B were evaluated in the Jurkat cell line. […] CD69 expression, a T cell activation marker, was detected by flow cytometry, gating on live CD3+/ROR1+ cells."}, "[5]": {"conditions": "IncuCyte, over 48 hours, GNCR1-CAR/DNCR2-casp9 cells 1:1 with Jeko1, 500 nM drug"}}}
{"molecule": "RIPK3: FKBP-F36V fused to the necroptosis-inducing protein RIPK3", "values": [{"measurement": "percent killing, FKBP(F36V)-fused killing domains", "setting": "Jurkat cells; Jurkat cells, 10 nM rimiducid, range of transduction levels", "value": "not able to induce cell death"}, {"measurement": "percent killing, FKBP(F36V)-fused killing domains", "setting": "[1]", "value": "not able to induce cell death"}]}
{"molecule": "C=C[C@@H]1C[C@]1(NC(=O)[C@@H]1C[C@@H]2CN1C(=O)[C@H](C(C)(C)C)NC(=O)O[C@@H]1C[C@H]1CCCCCc1nc3ccc(OC)cc3nc1O2)C(=O)NS(=O)(=O)C1CC1.O", "note": "[grazoprevir]", "values": [{"measurement": "CAR signaling, tdTomato intensity", "setting": "[2]; [5]", "value": "only activated"}, {"measurement": "CAR signaling, tdTomato gMFI", "setting": "[2]; dual-function GNCR1-CAR/DNCR2-casp-9, 500 nM drug, flow cytometry", "value": "activated"}, {"measurement": "CAR signaling, tdTomato intensity, drug switch", "setting": "[2]", "value": "increases"}, {"measurement": "effect on Jurkat cells expressing a conventional CAR with DNCR2-casp-9", "setting": "[3]; 500 nM drug", "value": "no effect"}]}
{"molecule": "DNCR2: danoprevir/NS3 complex reader polypeptide (SSDEEEARELIERAKEAAERAQEAAERTGDPRVRELARELKRLAQEAAEEVKRDPSSSD)", "values": [{"measurement": "affinity for the danoprevir/NS3a complex", "setting": "danoprevir/NS3a complex", "value": "high affinity"}]}
{"molecule": "CC(C)(C)OC(=O)N[C@H]1CCCCC/C=C\\[C@@H]2C[C@@]2(C(=O)NS(=O)(=O)C2CC2)NC(=O)[C@@H]2C[C@@H](OC(=O)N3Cc4cccc(F)c4C3)CN2C1=O", "note": "[danoprevir, (2R,6S,12Z,13aS,14aR,16aS)-14a-[(Cyclopropylsulfonyl)carbamoyl]-6-({[(2-methyl-2-propanyl)oxy]carbonyl}amino)-5,16-dioxo-1,2,3,5,6,7,8,9,10,11,13a,14,14a,15,16,16a-hexadecahydrocyclopropa[e]pyrrolo[1,2-a][1,4]diazacyclopentadecin-2-yl 4-fluoro-1,3-dihydro-2H-isoindole-2-carboxylate]", "values": [{"measurement": "CAR signaling, tdTomato intensity, drug switch", "setting": "[2]", "value": "declines"}, {"measurement": "effect on Jurkat cells expressing a conventional CAR with DNCR2-casp-9", "setting": "[3]; 500 nM drug", "value": "no effect"}, {"measurement": "percent killing (safety-switch)", "setting": "[3]; GNCR1-CAR/DNCR2-casp-9 system, 500 nM drug, loss of EGFP-positive population relative to DMSO", "value": "triggered"}, {"measurement": "cell viability, EGFP intensity", "setting": "[3]; [5]", "value": "decreased cell viability"}, {"measurement": "cell viability, EGFP signal, drug switch", "setting": "[3]; danoprevir added at 48 hours, with or without previous grazoprevir treatment", "value": "began to drop"}, {"measurement": "percent killing, two-chain direct dimerization design NCDC", "setting": "Jurkat cells; NS3a-casp-9/DNCR2-casp-9 (NCDC), drug titration, 24 hours, top about 10% GFP-expressing Jurkat cells", "value": "modest killing"}]}
{"molecule": "B1", "values": [{"measurement": "CD69 expression, regulation in response to danoprevir", "setting": "[4]", "value": "no significant regulation"}]}
